Experimental data as given in article PMC9913425, “Pentacyclic Triterpenoids-Based Ionic Compounds: Synthesis, Study of Structure–Antitumor Activity Relationship, Effects on Mitochondria and Activation of Signaling Pathways of Proliferation, Genome Reparation and Early Apoptosis” (Cancers, 2023).

How the values were obtained:
Format in all cases: cell-based
p53 = assay: Luminex xMAP panel, p53 protein content; details: Jurkat cells; 12a 0.006 µM, 13d 0.004 µM per 100,000 cells; first 6 h
Jurkat tumor cells = assay: Release of cytochrome c from mitochondria (anti-cytochrome C FITC, cytofluorimetry); details: compound at IC50, incubation 3 h
Protocol: Staurosporine (an inhibitor of most kinases in the cell) was taken as a control compound.
Figure 2 Release of cytochrome C from mitochondria under the influence of ionic liquids in Jurkat tumor cells. Anti-cytochrome C FITC antibodies were used for staining. […] Incubation with test compounds was 3 h. TEXT PRINTED IN THE PICTURE: (b) 344: Negative 30.82%; Positive 64.67% | (c) 214: Negative 40.58%; Positive 56.16% | (d) 346: Negative 19.43%; Positive 76.96% DOUBTS OF THE COPYIST ABOUT THIS PICTURE: The picture prints only sample codes (344, 214, 346; each followed by '/ E3'), not compound numbers or names; these codes are used as labels. / Panel a (sample code 211-4h, Negative 5.82%, Positive 93.68%) appears to be an untreated control, not a substance, and is left out. / Print is small: b, Negative 30.82% (8 or 6); c, Positive 56.16% (6 or 8); d, Positive 76.96% (6 or 8, 9 or 8).

Jurkat cells [1] = assay: Apoptosis/necrosis induction (Annexin V Alexa Fluor488, 7AAD staining); details: compound at IC50 concentration, incubation 2 h
Summary of the method: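 Jurkat cells stained with Annexin V Alexa Fluor488, 7AAD and MitoSense Red to assess membrane state, DNA and mitochondrial membrane integrity, distinguishing apoptosis from necrosis; lower MitoSense Red fluorescence marks mitochondrial damage.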

ATR kinase = assay: Luminex xMAP DNA Damage/Genotoxicity panel, ATR kinase content; details: Jurkat cells; 12a 0.006 µM, 13d 0.004 µM per 100,000 cells; 6 and 12 h
U937 = assay: In vitro cytotoxicity, IC50 by flow cytometry (Guava ViaCount)
Summary of the method: (§1)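 Suspension lines kept in RPMI 1640 with 10% FBS and […] at 37 °C, 5% CO2; cells seeded at 5 × 10^4 per well and incubated overnight before compound exposure. Viability counted by flow cytometry with Guava ViaCount staining to derive IC50.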

Jurkat = assay: as above; details: Jurkat cells
Summary of the method: as §1

K562 = assay: as above
Summary of the method: as §1

HEK293 = assay: as above; details: conditionally normal
Summary of the method: as §1

Jurkat cells [2] = assay: Cell cycle analysis (Guava Cell Cycle Reagent); details: IC50 concentration, 24 h, flow histogram
Protocol: Our findings are consistent with the literature data that many ICs predominantly affect the G2 and S phases, reducing them.
The incubation time of ionic liquids with cells was 24 h. […] It is listed because the picture prints the label with values. / The fit parameters printed in each histogram (RMS, Mean G1, Mean G2, G2/G1, CV G1, CV G2) were left out as statistics of the cell-cycle model.

Compound	expression of p53 protein (p53)	cytochrome c release from mitochondria (cytochrome C Negative cells) (Jurkat tumor cells) [%]	Apoptosis (%) Early (Jurkat cells [1]) [%]	Apoptosis (%) Late (Jurkat cells [1]) [%]	Apoptosis (%) Necrosis (Jurkat cells [1]) [%]	percentage of cells in the apoptotic state (Jurkat cells [1]) [%]	level of ATR kinase (ATR kinase)	IC50 (U937; Homo sapiens, U-937, U937 cells) [nM]	IC50 (Jurkat; Homo sapiens, Jurkat) [nM]	IC50 (K562; Homo sapiens, K562, K562 cells) [nM]	IC50 (HEK293; Homo sapiens, HEK293, HEK293 cells) [nM]	Freq Sub-G1 (hypodiploid cell population) (Jurkat cells [2]) [%]	IC50 (U937; U937 cells) [nM]	IC50 (Jurkat) [nM]	IC50 (K562; K562 cells) [nM]	IC50 (HEK293; HEK293 cells) [nM]
CC1(C)CC[C@]2(C(=O)OCCCCCC[n+]3ccccc3)CC[C@]3(C)C(=CCC4[C@@]5(C)CC[C@H](O)C(C)(C)C5CC[C@]43C)C2C1 (stereo partly drawn) [12a, 1-(6-{[(3β)-3-Hydroxyolean-12-en-28-oyl]oxy}hexyl)-pyridinium bromide]	significantly increased	40.58	0	22.63	65.18	87.81	significant increase	6 ± 1	6 ± 1	7 ± 1	44 ± 4	–	–	–	–	–
CC(=O)[O-].C[n+]1ccn(CCCCCCOC(=O)[C@]23CCC(C)(C)CC2C2=CCC4[C@@]5(C)CC[C@H](O)C(C)(C)C5CC[C@@]4(C)[C@]2(C)CC3)c1 (stereo partly drawn) [13d, 1-(6-{[(3β)-3-Hydroxyolean-12-en-28-oyl]oxy}hexyl)-3-methylimidazolium Acetate]	significantly increased	19.43	11.00	–	85.0	98.32	significant increase	–	–	–	–	6.91	5 ± 1	4 ± 1	6 ± 1	29 ± 2
